Reference: US10138207B2, “Benzomorphan analogs and the use thereof” (priority 2012, dated 2018)

Key:
μ-opioid receptor [1] = target: T1, μ-opioid receptor (Homo sapiens, UniProt P35372); test: μ-opioid receptor [35S]GTPγS functional assay, U-2 OS cells; format: biochemical; design: expressed in transfected cells; host or cells: U-2 OS; settings: for Emax: relative to DAMGO, read-out: GTPγS μ Emax
κ opioid receptor = κ opioid receptor (Homo sapiens, UniProt P41145); test: biochemical; format: binding; design: expressed in transfected cells; host or cells: HEK 293 (in-house membrane prep); settings: HEK-293 or CHO cells
μ-opioid receptor [2] = target: T1, μ-opioid receptor; test: μ-opioid receptor [35S]GTPγS functional assay, HEK-293 or CHO cells; settings: for Emax: read-out: GTPγS μ Emax
[3] = U-2 OS cells, read-out: GTPγS μ EC50

Sequence of κ opioid receptor (P41145 whole entry): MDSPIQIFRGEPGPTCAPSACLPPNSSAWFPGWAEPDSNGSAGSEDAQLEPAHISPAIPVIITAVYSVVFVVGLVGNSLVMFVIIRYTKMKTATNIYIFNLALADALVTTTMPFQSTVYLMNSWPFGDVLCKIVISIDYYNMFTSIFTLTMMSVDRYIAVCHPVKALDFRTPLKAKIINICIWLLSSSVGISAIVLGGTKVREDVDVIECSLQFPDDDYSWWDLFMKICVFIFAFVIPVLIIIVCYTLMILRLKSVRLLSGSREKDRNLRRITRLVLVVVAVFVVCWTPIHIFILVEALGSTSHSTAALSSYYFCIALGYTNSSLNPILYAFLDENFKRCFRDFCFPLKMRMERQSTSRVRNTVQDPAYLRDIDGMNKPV
T1 sequence (P35372 whole entry, species assumed): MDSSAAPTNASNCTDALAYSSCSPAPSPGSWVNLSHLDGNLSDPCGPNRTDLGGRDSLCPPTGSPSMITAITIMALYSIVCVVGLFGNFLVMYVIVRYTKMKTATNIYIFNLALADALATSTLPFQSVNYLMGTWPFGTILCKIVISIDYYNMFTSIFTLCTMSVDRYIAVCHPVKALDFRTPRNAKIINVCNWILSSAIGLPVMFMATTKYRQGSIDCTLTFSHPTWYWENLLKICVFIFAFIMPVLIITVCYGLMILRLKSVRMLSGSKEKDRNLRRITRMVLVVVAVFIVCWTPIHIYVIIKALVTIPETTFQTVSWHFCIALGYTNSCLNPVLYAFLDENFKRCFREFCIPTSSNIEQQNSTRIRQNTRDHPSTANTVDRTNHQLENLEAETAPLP

| SMILES | Ki (κ opioid receptor) | EC50 (μ-opioid receptor [2]) | Emax (μ-opioid receptor [2]) | also measured |
| --- | --- | --- | --- | --- |
| CN1CC[C@]2(C)c3cc(O)ccc3CC1C2N(C)C(=O)CCC(=O)O (stereo in doubt) [Compound 28, 4-(((2R,6R,11S)-8-hydroxy-3,6-dimethyl-1,2,3,4,5,6-hexahydro-2,6-methanobenzo[d]azocin-11-yl)(methyl)amino)-4-oxobutanoic acid] | 18.2 µM |  |  | EC50 (μ-opioid receptor [1]; [3]): 1.56 ± 0.106 µM; Emax (μ-opioid receptor [1]; U-2 OS cells): 74.7 ± 4.63% |
| CN1CC[C@]2(C)c3cc(O)ccc3CC1C2N(C)C(=O)Nc1ccc(C(=O)O)cc1 (stereo in doubt) [Compound 45, 4-(3-((2R,6R,11S)-8-hydroxy-3,6-dimethyl-1,2,3,4,5,6-hexahydro-2,6-methanobenzo[d]azocin-11-yl)-3-methylureido)benzoic acid] |  | 3.85 ± 0.839 µM | 17 ± 3.06% | Ki (κ opioid receptor; bound in μM): > 20 µM |
| CN1CC[C@]2(C)c3cc(O)ccc3CC1C2N(C)C(=O)Nc1ccc(C(=O)O)cc1 (stereo in doubt) [Compound 46, 4-(3-((2R,6R,11R)-8-hydroxy-3,6-dimethyl-1,2,3,4,5,6-hexahydro-2,6-methanobenzo[d]azocin-11-yl)-3-methylureido)benzoic acid] |  | 13.4 ± 2.99 µM | 36.7 ± 3.18% | Ki (κ opioid receptor; bound in μM): > 20 µM |
| CN1CC[C@]2(C)c3cc(O)ccc3CC1C2N(C)C(=O)c1ccccc1C(=O)O (stereo in doubt) [Compound 49, 2-(((2R,6R,11S)-8-hydroxy-3,6-dimethyl-1,2,3,4,5,6-hexahydro-2,6-methanobenzo[d]azocin-11-yl)(methyl)carbamoyl)benzoic acid] |  | > 20 µM | 31.3 ± 5.36% | Ki (κ opioid receptor; bound in μM): > 20 µM |
| CN1CC[C@]2(C)c3cc(O)ccc3CC1C2Nc1ccc(CCS(N)(=O)=O)cc1 (stereo in doubt) [Compound 58, 2-(4-(((2R,6R,11S)-8-hydroxy-3,6-dimethyl-1,2,3,4,5,6-hexahydro-2,6-methanobenzo[d]azocin-11-yl)amino)phenyl)ethanesulfonamide] | 0.336 ± 0.0875 µM | 0.751 ± 0.0433 µM | 110 ± 7.55% |  |
| CN1CC[C@]2(C)c3cc(O)ccc3CC1C2N(C)C(=O)NCCC(=O)O (stereo in doubt) [Compound 68, 3-(3-((2R,6R,11S)-8-hydroxy-3,6-dimethyl-1,2,3,4,5,6-hexahydro-2,6-methanobenzo[d]azocin-11-yl)-3-methylureido)propanoic acid] | 0.799 ± 0.0982 µM | 0.55 ± 0.0316 µM | 98 ± 1.73% |  |
| CN(C)C(=O)C(CCN1CC[C@]2(C)c3cc(O)ccc3CC1C2N(C)C(=O)Nc1ccc(C#N)cc1)(c1ccccc1)c1ccccc1 (stereo in doubt) [Compound 84, 4-((2R,6R,11S)-11-(3-(4-cyanophenyl)-1-methylureido)-8-hydroxy-6-methyl-1,2,5,6-tetrahydro-2,6-methanobenzo[d]azocin-3(4H)-yl)-N,N-dimethyl-2,2-diphenylbutanamide] | 0.269 ± 0.0277 µM |  |  | EC50 (μ-opioid receptor [1]; [3]): 0.0839 ± 0.0133 µM; Emax (μ-opioid receptor [1]; U-2 OS cells): 90.7 ± 1.86% |
| COc1ccc2c(c1)[C@@]1(C)CCN(C)C(C2)[C@@H]1CC(=O)O [Compound 15, 2-((6S,11R)-8-methoxy-3,6-dimethyl-1,2,3,4,5,6-hexahydro-2,6-methanobenzo[d]azocin-11-yl)acetic acid] |  |  |  | Ki (κ opioid receptor; bound in μM): > 20 µM |
| CN1CCC2(C)C(=NO)C1Cc1ccc(O)cc12 (stereo not shown) [Compound 18, 8-hydroxy-3,6-dimethyl-1,2,3,4,5,6-hexahydro-2,6-methanobenzo[d]azocin-11-one oxime] | 5.58 ± 1.01 µM |  |  |  |
| COc1ccc2c(c1)C1(C)CCN(CCC(C(=O)N(C)C)(c3ccccc3)c3ccccc3)C(C2)C1=NO (stereo not shown) [Compound 19, 4-(11-(hydroxyimino)-8-methoxy-6-methyl-1,2,5,6-tetrahydro-2,6-methanobenzo[d]azocin-3(4H)-yl)-N,N-dimethyl-2,2-diphenylbutanamide] | 8.52 ± 0.605 µM |  |  |  |
| COc1ccc2c(c1)[C@@]1(C)CCN(C)C(C2)[C@H]1N(C)C(=O)/C=C/c1ccoc1 [Compound 20, (E)-3-(furan-3-yl)-N-((6R,11S)-8-methoxy-3,6-dimethyl-1,2,3,4,5,6-hexahydro-2,6-methanobenzo[d]azocin-11-yl)-N-methylacrylamide] | 1.95 ± 0.538 µM |  |  |  |
| CN(C)C(=O)C(CCN1CC[C@]2(C)c3cc(O)ccc3CC1[C@@H]2O)(c1ccccc1)c1ccccc1 [Compound 21, 4-((6R,11R)-8,11-dihydroxy-6-methyl-1,2,5,6-tetrahydro-2,6-methanobenzo[d]azocin-3(4H)-yl)-N,N-dimethyl-2,2-diphenylbutanamide] | 1.22 ± 0.332 µM |  |  |  |
| COc1ccc2c(c1)[C@@]1(C)CCN(C)[C@@H](C2)C1=NNC(=O)c1ccc(F)cc1 [Compound 26, 4-fluoro-N′-((2S,6R)-8-methoxy-3,6-dimethyl-1,2,3,4,5,6-hexahydro-2,6-methanobenzo[d]azocin-11-ylidene)benzohydrazide] |  |  |  | EC50 (μ-opioid receptor [1]; GTPγS μ EC50, U-2 OS cells): 1.19 ± 0.0939 µM; Emax (μ-opioid receptor [1]; U-2 OS cells): 91 ± 7.09%; Ki (κ opioid receptor; bound in μM): > 20 µM |
| CN1CC[C@]2(C)c3cc(O)ccc3C[C@@H]1[C@H]2COc1cncc(C(=O)O)c1 [Compound 33, 5-(((2R,6S,11S)-8-hydroxy-3,6-dimethyl-1,2,3,4,5,6-hexahydro-2,6-methanobenzo[d]azocin-11-yl)methoxy)nicotinic acid] | 2.84 ± 0.342 µM | 2.45 ± 0.167 µM | 49 ± 3.67% |  |
| CN1CC[C@]2(C)c3cc(O)ccc3CC1[C@@H]2COc1cncc(C(=O)O)c1 [Compound 34, 5-(((6S,11R)-8-hydroxy-3,6-dimethyl-1,2,3,4,5,6-hexahydro-2,6-methanobenzo[d]azocin-11-yl)methoxy)nicotinic acid] | 5.99 ± 0.604 µM | 3.64 ± 0.373 µM | 16 ± 3.46% |  |
| CN1CC[C@]2(C)c3cc(O)ccc3CC1[C@@H]2CC(=O)Nc1ccccc1C(=O)O [Compound 35, 2-(2-((6S,11R)-8-hydroxy-3,6-dimethyl-1,2,3,4,5,6-hexahydro-2,6-methanobenzo[d]azocin-11-yl)acetamido)benzoic acid] |  | 2.57 ± 0.783 µM | 23 ± 0.58% | Ki (κ opioid receptor; bound in μM): > 20 µM |
| COc1ccc2c(c1)[C@@]1(C)CCN(C)C(C2)[C@@H]1c1cccc(C#N)c1 [Compound 36, 3-((6S,11R)-8-methoxy-3,6-dimethyl-1,2,3,4,5,6-hexahydro-2,6-methanobenzo[d]azocin-11-yl)benzonitrile] | 4.19 ± 1.05 µM | > 20 µM |  |  |
| COc1ccc2c(c1)[C@@]1(C)CCN(C)C(C2)[C@]1(O)c1cccc(C#N)c1 [Compound 37, 3-((6R,11S)-11-hydroxy-8-methoxy-3,6-dimethyl-1,2,3,4,5,6-hexahydro-2,6-methanobenzo[d]azocin-11-yl)benzonitrile] |  | > 20 µM |  | Ki (κ opioid receptor; bound in μM): > 20 µM |
| COc1ccc2c(c1)[C@@]1(C)CCN(C)C(C2)[C@@H]1c1cccc(C(=O)O)c1 [Compound 38, 3-((6S,11R)-8-methoxy-3,6-dimethyl-1,2,3,4,5,6-hexahydro-2,6-methanobenzo[d]azocin-11-yl)benzoic acid] | 17.4 ± 5.98 µM | > 20 µM |  |  |
| CN1CC[C@]2(C)c3cc(O)ccc3CC1[C@@H]2COc1cccc(C(=O)O)c1 [Compound 40, 3-(((6S,11R)-8-hydroxy-3,6-dimethyl-1,2,3,4,5,6-hexahydro-2,6-methanobenzo[d]azocin-11-yl)methoxy)benzoic acid] | 3.12 ± 0.483 µM | 3.07 ± 0.469 µM | 25.7 ± 3.76% |  |
| CN1CC[C@]2(C)c3cc(O)ccc3C[C@@H]1[C@H]2COc1cccc(C(=O)O)c1 [Compound 41, 3-(((2R,6S,11S)-8-hydroxy-3,6-dimethyl-1,2,3,4,5,6-hexahydro-2,6-methanobenzo[d]azocin-11-yl)methoxy)benzoic acid] | 1.88 ± 0.28 µM | 1.22 ± 0.235 µM | 46 ± 3.79% |  |
| COc1ccc2c(c1)[C@@]1(C)CCN(C)C(C2)[C@@H]1c1cccc(-c2nnn[nH]2)c1 [Compound 42, (6S,11R)-11-(3-(1H-tetrazol-5-yl)phenyl)-8-methoxy-3,6-dimethyl-1,2,3,4,5,6-hexahydro-2,6-methanobenzo[d]azocine] |  | > 20 µM |  | Ki (κ opioid receptor; bound in μM): > 20 µM |
| CN1CC[C@]2(C)c3cc(O)ccc3C[C@@H]1[C@H]2N(C)C(=O)c1cccc(C(=O)O)c1 [Compound 47, 3-(((2R,6R,11S)-8-hydroxy-3,6-dimethyl-1,2,3,4,5,6-hexahydro-2,6-methanobenzo[d]azocin-11-yl)(methyl)carbamoyl)benzoic acid] | 20 µM | 8.89 ± 0.655 µM | 58.7 ± 5.24% |  |
| CN1CC[C@]2(C)c3cc(O)ccc3C[C@@H]1[C@H]2N(C)C(=O)Nc1ccc(C#N)cc1 [Compound 79, 3-(4-cyanophenyl)-1-((2R,6R,11S)-8-hydroxy-3,6-dimethyl-1,2,3,4,5,6-hexahydro-2,6-methanobenzo[d]azocin-11-yl)-1-methylurea] | 3.14 ± 0.805 µM |  |  | EC50 (μ-opioid receptor [1]; [3]): 2.2 ± 0.668 µM; Emax (μ-opioid receptor [1]; U-2 OS cells): 49 ± 3.46% |
| COc1ccc2c(c1)[C@@]1(C)CCN(CC3CC3)C(C2)[C@H]1N(C)C(=O)Nc1ccc(C(N)=O)cc1 [Compound 82] | 10.2 µM |  |  | EC50 (μ-opioid receptor [1]; U-2 OS cells, bound in μM, read-out: GTPγS μ EC50): > 20 µM; Emax (μ-opioid receptor [1]; U-2 OS cells): 31.7 ± 5.36% |
| COc1ccc2c(c1)[C@@]1(C)CCN(CC3CC3)[C@H](C2)[C@H]1N(C)C(=O)/C=C/c1ccoc1 [Compound 85, (E)-N-((2R,6R,11S)-3-(cyclopropylmethyl)-8-methoxy-6-methyl-1,2,3,4,5,6-hexahydro-2,6-methanobenzo[d]azocin-11-yl)-3-(furan-3-yl)-N-methylacrylamide] | 0.701 ± 0.0941 µM |  |  | EC50 (μ-opioid receptor [1]; [3]): 3.24 ± 0.77 µM; Emax (μ-opioid receptor [1]; U-2 OS cells): 19.3 ± 2.33% |
| COc1ccc2c(c1)[C@@]1(C)CCN(CC3CC3)[C@H](C2)[C@H]1N(C)C(=O)/C=C\c1ccoc1 [Compound 86, (Z)—N-((2R,6R,11S)-3-(cyclopropylmethyl)-8-methoxy-6-methyl-1,2,3,4,5,6-hexahydro-2,6-methanobenzo[d]azocin-11-yl)-3-(furan-3-yl)-N-methylacrylamide] | 0.979 ± 0.146 µM |  |  | EC50 (μ-opioid receptor [1]; [3]): 2.15 ± 0.21 µM; Emax (μ-opioid receptor [1]; U-2 OS cells): 14.7 ± 0.88% |
